Legend:
[1] = test system: HCT116; experiment: In vitro cytotoxicity, cell colony formation assay; format: cell-based; conditions: Homo sapiens, HCT-116; read-out: IN VITRO ID 50
Procedure: In Vitro cytotoxicity measured by the cell colony formation assay
Four hundred cells (HCT116) were plated in 60 mm Petri dishes containing 2.7 mL of medium (modified McCoy's 5a medium containing 10% fetal bovine serum and 100 units/mL penicillin and […] streptomycin). The cells were incubated in a CO2 incubator at 37 °C for 5 h for attachment to the bottom of Petri dishes. The compounds identified in Example 2 were made up fresh in medium at ten times the final concentration, and then 0.3 mL of this stock solution was added to the 2.7 mL of medium in the dish. The cells were then incubated with drugs for 72 h at 37 ° C. At the end of incubation the drug-containing media were decanted, the dishes were rinsed with 4 mL of Hank's Balance Salt Solution (HBSS), 5 mL of fresh medium was added, and the dishes were returned to the incubator for colony formation. The cell colonies were counted using a colony counter after incubation for 7 days.

[2] = test system: DU 145 Human Prostrate Carcinoma Xenografts; experiment: In vivo evaluation against DU145 prostate carcinoma xenografts
Procedure: In Vivo Evaluation of Antitumor Compounds Against DU 145 Human Prostrate Carcinoma Xenografts
(§1) Antitumor compounds were prepared in a vehicle of 5% ethanol, 5% Cremophor and 90% isotonic saline in the manner as described for Solution 1 of Example 10. Taxol (paclitaxel; Bristol Meyers Squibb) was obtained as the marketed pharmaceutical drug. The dosing volume was 0.3 ml per 20 g mouse.
Male NCr-nude mice were implanted subcutaneously with 1 mm^3 DU145 prostate carcinoma fragments in the flank and sorted into treatment groups of five mice each. […] Dosing was initiated on Day 1. The antitumor compounds were given i.v. at an estimated maximum tolerated dose (MTD) appropriate for each agent on a qd x 1 schedule (single administration of compound). The i.v. Taxol was given on the qd x 1 schedule as two split doses (one hour between) of 12 mg/kg per split dose (total dose = 24 mg/kg). Taxol was also administered intraperitoneally (i.p.) on a qd x 5 schedule at a daily dose of 18 mg/kg. The vehicle was administered i.v. to control mice in Group 1 on the qd x 1 schedule. The study was terminated on Day 91. Treatment groups are detailed in Table 3.
(§2) The mean days of survival is the number of days after which a neoplasm reached a size of 1.5 g and the animal was euthanized. A complete response is obtained […]. […]

[3] = test system: A2780 Human Ovarian Carcinoma Xenografts; experiment: In vivo evaluation against A2780 ovarian carcinoma xenografts; parameters: species or system NCr-nude mice
Procedure: In Vivo Evaluation of Antitumor Compounds Against A2780 Human Ovarian Carcinoma Xenografts
The A2780 group mean size range was 237-243 mg. Dosing was initiated on Day 1. […] Treatment groups are detailed in Table 5.

[4] = test system: Panc-1 Human Pancreatic Carcinoma; experiment: In vivo evaluation against Panc-1 pancreatic carcinoma xenografts; conditions: for Toxic Deaths: female, NCr-nude, mouse, in vivo
Procedure: In Vivo Evaluation of Antitumor Compounds Against Panc-1 Human Pancreatic Carcinoma
as §1
Female NCr-nude mice were implanted subcutaneously with 1 mm^3 Panc-1 pancreatic carcinoma fragments in the flank and sorted into treatment groups of six mice each. […] Dosing was initiated on Day 1. The antitumor compounds were given i.v. at an estimated maximum tolerated dose (MTD) appropriate for each agent on a qd x 1 schedule (single administration of compound). The i.v. taxol was given on the qd x 1 schedule as two split doses (one hour between) of 12 mg/kg per split dose (total dose = 24 mg/kg). Taxol was also administered at a dose of 15 mg/kg i.p. on a qd x 5 schedule. The vehicle was administered i.v. to control mice in Group 1 on the qd x 1 schedule. The study was terminated on Day 63. Treatment groups are detailed in Table 9.
as §2, with “The results are summarized in Table 10 and include mean days of survival (MDS), number of toxic deaths, number of survivors, number of complete or partial responses, and number with stable disease. The” for “The”

[5] = test system: VM46 Human Colon Carcinoma; experiment: In vivo evaluation against VM46 colon carcinoma xenografts; parameters: species or system NCr-nude mice
Procedure: In Vivo Evaluation of Antitumor Compounds Against VM46 Human Colon Carcinoma
The VM46 tumor group mean size range was 181-188 mg. Dosing was initiated on Day 1. […] Taxotere was given i.v. at a dose of 70 mg/kg on a qd x 1 schedule. […] The study was terminated on Day 64. Treatment groups are detailed in Table 11.

[6] = Group 2: 24 mg/kg i.v. qd x 1 (two split doses of 12 mg/kg), 5 mice, study to Day 91
[7] = Group 3: 18 mg/kg i.p. qd x 5, 5 mice, study to Day 91
[8] = Group 2: 24 mg/kg i.v. qd x 1 (two split doses of 12 mg/kg), 5 mice, study to Day 60
[9] = Group 3: 15 mg/kg i.p. qd x 5, 5 mice, study to Day 60
[10] = Group 2: 24 mg/kg i.v. qd x 1 (two split doses of 12 mg/kg), 6 mice, study to Day 63
[11] = Group 3: 15 mg/kg i.p. qd x 5, 6 mice, study to Day 63
[12] = number of cases, Taxol 24 mg/kg i.v. qd x 1, six mice
[13] = Group 2: 24 mg/kg i.v. qd x 1 (two split doses of 12 mg/kg), 6 mice, study to Day 64
[14] = Group 3: 15 mg/kg i.p. qd x 5, 6 mice, study to Day 64

**Q.** `CC(=O)O[C@H]1C(=O)[C@@]2(C)[C@H]([C@H](OC(=O)c3ccccc3)[C@]3(O)C[C@H](OC(=O)[C@H](O)[C@@H](NC(=O)c4ccccc4)c4ccccc4)C(C)=C1C3(C)C)[C@]1(OC(C)=O)CO[C@@H]1C[C@@H]2O` [Taxol] was tested. Which IC50 [1] did it give?
**A.** Its IC50 is 2.1 nM.

**Q.** And the “MDS (n)” value ([2]; Group 2: 24 mg/kg i.v. qd x 1 (two split doses of 12 mg/kg), 5 mice, n=3, 1.5 g endpoint, study to Day 91)?
**A.** Its value is 37.4 ± 8.9 (3) days.

**Q.** What about the “Complete Response” value [2, 6] of the same compound?
**A.** The value was 0.

**Q.** What about the “Mean Score” value [2, 6] of the same compound?
**A.** Its value is 2 ± 1.

**Q.** And the “Partial Response” value [2, 6]?
**A.** Its value is 0.

**Q.** What about the “Stable Disease” value [2, 6] of the same compound?
**A.** Its value is 1.

**Q.** And the Survivors [2, 6]?
**A.** The Survivors was 1.

**Q.** And the “Toxic Deaths” value [2, 6]?
**A.** The value was 1.

**Q.** What about the “Complete Response” value [2, 7] of the same compound?
**A.** The value was 0.

**Q.** And the “Mean Score” value [2, 7]?
**A.** The value was 0 ± 0.

**Q.** And the “Partial Response” value [2, 7]?
**A.** Its value is 0.

**Q.** And the “Stable Disease” value [2, 7]?
**A.** The value was 0.

**Q.** What about the Survivors [2, 7] of the same compound?
**A.** Its Survivors is 0.

**Q.** What about the “Toxic Deaths” value [2, 7] of the same compound?
**A.** The value was 5.

**Q.** And the weight loss ([2]; Taxol 18 mg/kg i.p. qd x 5)?
**A.** Its weight loss is “more than 20%”.

**Q.** What about the “mice died of drug-related side effects” value ([2]; Taxol 18 mg/kg i.p. qd x 5, five mice) of the same compound?
**A.** Its value is “five”.

**Q.** What about the “increase in survival compared to Group 1 controls” value ([2]; Taxol 24 mg/kg i.v. qd x 1) of the same compound?
**A.** The value was 9%.

**Q.** What about the MDS ([2]; Taxol 24 mg/kg i.v. qd x 1, 1.5 g endpoint, three of five animals) of the same compound?
**A.** The MDS was 37.4 days.

**Q.** And the “MDS (n)” value ([3]; Group 2: 24 mg/kg i.v. qd x 1 (two split doses of 12 mg/kg), 5 mice, n=5, 2.0 g endpoint, study to Day 60)?
**A.** Its value is 21.9 ± 5.5 (5) days.

**Q.** And the “Complete Response” value [3, 8]?
**A.** The value was 0.

**Q.** And the “Mean Score” value [3, 8]?
**A.** Its value is 1.8 ± 0.4.

**Q.** What about the “Partial Response” value [3, 8] of the same compound?
**A.** Its value is 0.

**Q.** And the “Stable Disease” value [3, 8]?
**A.** The value was 0.

**Q.** And the Survivors [3, 8]?
**A.** The Survivors was 1.

**Q.** What about the “Toxic Deaths” value [3, 8] of the same compound?
**A.** Its value is 0.

**Q.** And the “Complete Response” value [3, 9]?
**A.** The value was 0.

**Q.** And the “Mean Score” value [3, 9]?
**A.** Its value is 0.6 ± 0.6.

**Q.** What about the “Partial Response” value [3, 9] of the same compound?
**A.** Its value is 0.

**Q.** What about the “Stable Disease” value [3, 9] of the same compound?
**A.** Its value is 0.

**Q.** What about the Survivors [3, 9] of the same compound?
**A.** The Survivors was 0.

**Q.** And the “Toxic Deaths” value [3, 9]?
**A.** The value was 4.

**Q.** And the “mice succumbed to drug-related side effects” value ([3]; Taxol 15 mg/kg i.p. qd x 5, five mice)?
**A.** The value was “four”.

**Q.** And the “increase in survival / survival extension compared to Group 1 controls” value ([3]; i.v. qd x 1, Taxol 24 mg/kg, Taxotere 70 mg/kg)?
**A.** The value was 87%.

**Q.** And the MDS ([3]; i.v. qd x 1, Taxol 24 mg/kg, Taxotere 70 mg/kg, 2.0 g cut-off)?
**A.** Its MDS is 21.9 days.

**Q.** And the Stable Disease ([3]; number of animals, Taxol 24 mg/kg i.v. qd x 1, Day 61)?
**A.** The Stable Disease was “One”.

**Q.** What about the “MDS (n)” value ([4]; Group 2: 24 mg/kg i.v. qd x 1 (two split doses of 12 mg/kg), 6 mice, n=4, 1.5 g endpoint, study to Day 63) of the same compound?
**A.** Its value is 34.7 ± 3.4(4) days.

**Q.** And the “Complete Response” value [4, 10]?
**A.** Its value is 0.

**Q.** What about the “Mean Score” value [4, 10] of the same compound?
**A.** The value was 2.2 ± 0.8.

**Q.** And the “Partial Response” value [4, 10]?
**A.** The value was 0.

**Q.** What about the “Stable Disease” value [4, 10] of the same compound?
**A.** The value was 1.

**Q.** And the Survivors [4, 10]?
**A.** The Survivors was 1.

**Q.** And the “Complete Response” value [4, 11]?
**A.** Its value is 0.

**Q.** What about the “Mean Score” value [4, 11] of the same compound?
**A.** The value was 1.2 ± 1.2.

**Q.** And the “Partial Response” value [4, 11]?
**A.** Its value is 1.

**Q.** What about the “Stable Disease” value [4, 11] of the same compound?
**A.** The value was 0.

**Q.** What about the Survivors [4, 11] of the same compound?
**A.** Its Survivors is 1.

**Q.** And the MDS ([4]; Taxol 24 mg/kg i.v. qd x 1, four mice, 1.5 g cut-off)?
**A.** Its MDS is 34.7 days.

**Q.** What about the “Toxic Deaths” value [4] of the same compound?
**A.** The value was 1.

**Q.** What about the “Toxic Deaths” value ([4]; ip, 15 mg/kg) of the same compound?
**A.** Its value is 4.

**Q.** What about the Stable Disease [4, 12] of the same compound?
**A.** Its Stable Disease is “one”.

**Q.** What about the “MDS (n)” value ([5]; Group 2: 24 mg/kg i.v. qd x 1 (two split doses of 12 mg/kg), 6 mice, n=4, 1.5 g endpoint, study to Day 64) of the same compound?
**A.** Its value is 43.3 ± 3.7 (4) days.

**Q.** What about the “Complete Response” value [5, 13] of the same compound?
**A.** Its value is 0.

**Q.** And the “Mean Score” value [5, 13]?
**A.** Its value is 3.8 ± 1.4.

**Q.** What about the “Partial Response” value [5, 13] of the same compound?
**A.** The value was 1.

**Q.** What about the “Stable Disease” value [5, 13] of the same compound?
**A.** Its value is 1.

**Q.** And the “Toxic Deaths” value [5, 13]?
**A.** The value was 0.

**Q.** What about the “MDS (n)” value ([5]; Group 3: 15 mg/kg i.p. qd x 5, 6 mice, n=2, 1.5 g endpoint, study to Day 64) of the same compound?
**A.** Its value is 36.1 ± 12.2(2) days.

**Q.** And the “Complete Response” value [5, 14]?
**A.** The value was 0.

**Q.** What about the “Mean Score” value [5, 14] of the same compound?
**A.** Its value is 1.8 ± 1.3.

**Q.** What about the “Partial Response” value [5, 14] of the same compound?
**A.** The value was 1.

**Q.** What about the “Stable Disease” value [5, 14] of the same compound?
**A.** Its value is 0.

**Q.** What about the “Toxic Deaths” value [5, 14] of the same compound?
**A.** The value was 3.

**Q.** And the mortalities ([5]; Taxol 15 mg/kg i.p. qd x 5, six treated animals)?
**A.** The mortalities was “three”.

**Q.** And the MDS ([5]; i.v. qd x 1, Taxol 24 mg/kg (four mice), Taxotere 70 mg/kg, 1.5 g endpoint)?
**A.** Its MDS is 43.3 days.

**Q.** What about the Stable Disease [5, 12] of the same compound?
**A.** Its Stable Disease is “one”.

**Q.** What about the Partial Response ([5]; number of mice, Taxol 24 mg/kg i.v. qd x 1, six mice) of the same compound?
**A.** Its Partial Response is “one”.
